Holding throughout (experiment): biochemical
Holding throughout (design): KINOMEscan active-site competition binding, percent of control (100 = no competition)
Settings in all cases: competition binding, percent control

Experiment [1] concerns the target RIOK3 (Homo sapiens, UniProt O14730).
Experiment [2] concerns the target STK39 (Homo sapiens, UniProt Q9UEW8).
Experiment [3] has as its target PLK3 (Homo sapiens, UniProt Q9H4B4).
In experiment [4] the target is RIPK2 (Homo sapiens, UniProt O43353).
RIPK2, sequence (O43353 whole entry): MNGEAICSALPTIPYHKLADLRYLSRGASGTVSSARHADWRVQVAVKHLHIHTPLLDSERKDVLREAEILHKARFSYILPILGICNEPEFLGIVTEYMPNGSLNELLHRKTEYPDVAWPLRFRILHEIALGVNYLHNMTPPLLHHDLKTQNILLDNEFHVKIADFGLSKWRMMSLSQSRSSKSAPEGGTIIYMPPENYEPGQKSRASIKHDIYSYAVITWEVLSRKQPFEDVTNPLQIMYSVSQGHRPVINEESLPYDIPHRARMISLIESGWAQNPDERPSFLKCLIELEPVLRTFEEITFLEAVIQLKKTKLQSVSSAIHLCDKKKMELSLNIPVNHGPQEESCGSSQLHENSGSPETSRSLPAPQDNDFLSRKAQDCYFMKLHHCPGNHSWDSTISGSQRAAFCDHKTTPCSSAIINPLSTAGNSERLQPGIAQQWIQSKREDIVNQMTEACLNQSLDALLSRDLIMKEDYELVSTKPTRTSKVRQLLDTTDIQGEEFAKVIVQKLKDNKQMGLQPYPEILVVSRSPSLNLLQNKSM
Experiment [5] deals with T1, HPK1 (Homo sapiens, UniProt Q92918).
T1 construct: gene MAP4K1
T1 sequence (Q92918 whole entry): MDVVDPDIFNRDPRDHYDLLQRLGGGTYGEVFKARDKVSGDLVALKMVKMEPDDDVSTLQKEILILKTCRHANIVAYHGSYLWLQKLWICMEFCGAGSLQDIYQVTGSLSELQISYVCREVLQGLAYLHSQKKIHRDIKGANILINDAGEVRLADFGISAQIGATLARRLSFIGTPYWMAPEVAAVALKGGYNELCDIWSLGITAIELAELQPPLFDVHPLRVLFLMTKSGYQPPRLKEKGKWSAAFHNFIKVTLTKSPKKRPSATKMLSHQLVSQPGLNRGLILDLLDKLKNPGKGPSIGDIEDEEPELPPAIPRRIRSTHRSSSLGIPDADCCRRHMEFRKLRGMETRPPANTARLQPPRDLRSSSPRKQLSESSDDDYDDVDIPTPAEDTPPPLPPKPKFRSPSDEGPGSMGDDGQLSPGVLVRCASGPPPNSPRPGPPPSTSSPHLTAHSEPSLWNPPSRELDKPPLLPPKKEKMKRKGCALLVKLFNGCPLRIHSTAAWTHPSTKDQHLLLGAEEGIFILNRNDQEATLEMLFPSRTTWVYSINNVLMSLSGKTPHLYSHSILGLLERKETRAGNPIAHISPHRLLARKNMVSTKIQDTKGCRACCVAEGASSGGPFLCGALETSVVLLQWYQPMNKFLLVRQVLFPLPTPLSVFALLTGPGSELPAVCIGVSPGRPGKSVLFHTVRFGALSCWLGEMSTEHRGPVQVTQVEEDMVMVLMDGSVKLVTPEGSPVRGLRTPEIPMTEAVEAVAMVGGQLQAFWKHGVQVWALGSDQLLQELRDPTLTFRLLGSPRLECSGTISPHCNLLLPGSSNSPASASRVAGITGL

In experiment [6] the target is T2, DRAK2 (Homo sapiens, UniProt O94768).
T2 construct: gene STK17B
T2 sequence (O94768 whole entry): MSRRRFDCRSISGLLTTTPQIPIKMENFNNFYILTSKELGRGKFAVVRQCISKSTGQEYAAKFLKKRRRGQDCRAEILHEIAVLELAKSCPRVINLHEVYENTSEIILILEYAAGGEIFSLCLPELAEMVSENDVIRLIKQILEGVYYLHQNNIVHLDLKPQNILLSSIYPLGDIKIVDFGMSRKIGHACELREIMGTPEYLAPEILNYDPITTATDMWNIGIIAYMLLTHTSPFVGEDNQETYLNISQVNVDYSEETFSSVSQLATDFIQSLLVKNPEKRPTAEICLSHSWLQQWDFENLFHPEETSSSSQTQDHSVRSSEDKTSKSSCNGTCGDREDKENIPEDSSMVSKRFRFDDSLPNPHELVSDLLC

In experiment [7] the target is T3, PCTK1 (Homo sapiens, UniProt Q00536).
T3 construct: gene CDK16

In experiment [8] the target is FLT3(K663Q) (Homo sapiens, UniProt P36888, K663Q).
Experiment [9] has as its target PAK2 (Homo sapiens, UniProt Q13177).
Experiment [10] deals with FES (Homo sapiens, UniProt P07332).
FES, sequence (P07332 whole entry): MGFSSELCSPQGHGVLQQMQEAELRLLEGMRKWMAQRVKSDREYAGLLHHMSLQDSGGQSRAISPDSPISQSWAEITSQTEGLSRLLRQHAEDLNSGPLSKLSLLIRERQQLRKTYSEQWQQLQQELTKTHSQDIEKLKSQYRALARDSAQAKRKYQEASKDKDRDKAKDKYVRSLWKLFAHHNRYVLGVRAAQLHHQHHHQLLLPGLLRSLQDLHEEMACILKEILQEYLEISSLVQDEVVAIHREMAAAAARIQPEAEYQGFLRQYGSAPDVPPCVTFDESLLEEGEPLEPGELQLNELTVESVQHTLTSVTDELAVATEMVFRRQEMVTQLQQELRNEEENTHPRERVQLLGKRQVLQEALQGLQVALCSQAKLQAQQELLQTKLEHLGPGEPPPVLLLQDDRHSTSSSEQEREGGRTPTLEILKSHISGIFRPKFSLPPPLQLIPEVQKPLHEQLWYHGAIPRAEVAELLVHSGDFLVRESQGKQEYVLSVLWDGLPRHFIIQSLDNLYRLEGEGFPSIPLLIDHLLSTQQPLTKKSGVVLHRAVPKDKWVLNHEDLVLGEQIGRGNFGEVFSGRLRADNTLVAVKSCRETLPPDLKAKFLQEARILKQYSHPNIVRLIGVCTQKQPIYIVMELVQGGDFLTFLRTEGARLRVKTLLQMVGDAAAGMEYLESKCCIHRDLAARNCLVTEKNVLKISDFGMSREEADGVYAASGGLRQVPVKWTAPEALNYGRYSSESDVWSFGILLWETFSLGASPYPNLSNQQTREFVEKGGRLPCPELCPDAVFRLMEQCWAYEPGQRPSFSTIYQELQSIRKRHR
Experiment [11] has as its target MARK3 (Homo sapiens, UniProt P27448).
Experiment [12] deals with T4, PAK7 (Homo sapiens, UniProt Q9P286).
T4 construct: gene PAK5

The target in experiment [13] is CIT (Homo sapiens, UniProt O14578).
The target of experiment [14] is T5, ERK2 (Homo sapiens, UniProt P28482).
T5 construct: gene MAPK1

Experiment [15] concerns the target EGFR (Homo sapiens, UniProt P00533).
In experiment [16] the target is NEK6 (Homo sapiens, UniProt Q9HC98).
NEK6, sequence (Q9HC98 whole entry): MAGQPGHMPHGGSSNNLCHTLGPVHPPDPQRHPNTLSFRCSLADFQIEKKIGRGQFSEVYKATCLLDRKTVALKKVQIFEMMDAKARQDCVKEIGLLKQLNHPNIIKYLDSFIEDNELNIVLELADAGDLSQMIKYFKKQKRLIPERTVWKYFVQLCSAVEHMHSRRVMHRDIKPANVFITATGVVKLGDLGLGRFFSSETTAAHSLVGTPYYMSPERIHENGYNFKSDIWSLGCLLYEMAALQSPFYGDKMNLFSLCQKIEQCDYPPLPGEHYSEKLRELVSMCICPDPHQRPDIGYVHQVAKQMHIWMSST
The target of experiment [17] is T6, AMPK-alpha1 (Homo sapiens, UniProt Q13131).
T6 construct: gene PRKAA1
T6 sequence (Q13131 whole entry): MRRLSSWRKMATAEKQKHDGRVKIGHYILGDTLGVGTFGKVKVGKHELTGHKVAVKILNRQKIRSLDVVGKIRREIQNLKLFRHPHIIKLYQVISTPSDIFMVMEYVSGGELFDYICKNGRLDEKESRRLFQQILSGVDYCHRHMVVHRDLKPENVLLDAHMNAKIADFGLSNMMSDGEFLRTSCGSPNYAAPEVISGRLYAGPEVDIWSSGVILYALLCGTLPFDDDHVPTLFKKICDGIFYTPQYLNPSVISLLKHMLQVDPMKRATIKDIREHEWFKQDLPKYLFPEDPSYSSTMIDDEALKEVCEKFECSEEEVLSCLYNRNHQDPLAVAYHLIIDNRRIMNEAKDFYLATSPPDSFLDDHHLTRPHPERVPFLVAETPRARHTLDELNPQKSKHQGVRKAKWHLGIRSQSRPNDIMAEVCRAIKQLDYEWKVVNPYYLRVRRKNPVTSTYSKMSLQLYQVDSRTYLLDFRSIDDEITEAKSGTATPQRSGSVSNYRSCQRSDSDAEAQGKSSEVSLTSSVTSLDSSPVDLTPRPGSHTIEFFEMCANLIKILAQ

Experiment [18] addresses MKNK1 (Homo sapiens, UniProt Q9BUB5).
The target of experiment [19] is ZAP70 (Homo sapiens, UniProt P43403).
The target of experiment [20] is DMPK (Homo sapiens, UniProt Q09013).
The target of experiment [21] is SRPK3 (Homo sapiens, UniProt Q9UPE1).
Experiment [22] concerns the target T7, MEK4 (Homo sapiens, UniProt P45985).
T7 construct: gene MAP2K4

Experiment [23] has as its target T8, p38-gamma (Homo sapiens, UniProt P53778).
T8 construct: gene MAPK12

SMILES strings stand for the structures.

T8 sequence (P53778 whole entry): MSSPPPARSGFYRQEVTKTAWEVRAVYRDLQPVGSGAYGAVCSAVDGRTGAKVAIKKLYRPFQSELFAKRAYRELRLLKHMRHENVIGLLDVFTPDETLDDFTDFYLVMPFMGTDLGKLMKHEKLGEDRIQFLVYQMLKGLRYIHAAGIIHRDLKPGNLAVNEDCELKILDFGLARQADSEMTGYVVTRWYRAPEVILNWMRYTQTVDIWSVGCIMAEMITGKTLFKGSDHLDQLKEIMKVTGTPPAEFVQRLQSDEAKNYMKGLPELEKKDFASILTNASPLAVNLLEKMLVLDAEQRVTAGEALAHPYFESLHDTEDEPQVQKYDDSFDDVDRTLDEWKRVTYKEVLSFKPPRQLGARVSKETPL
MKNK1, sequence (Q9BUB5 whole entry): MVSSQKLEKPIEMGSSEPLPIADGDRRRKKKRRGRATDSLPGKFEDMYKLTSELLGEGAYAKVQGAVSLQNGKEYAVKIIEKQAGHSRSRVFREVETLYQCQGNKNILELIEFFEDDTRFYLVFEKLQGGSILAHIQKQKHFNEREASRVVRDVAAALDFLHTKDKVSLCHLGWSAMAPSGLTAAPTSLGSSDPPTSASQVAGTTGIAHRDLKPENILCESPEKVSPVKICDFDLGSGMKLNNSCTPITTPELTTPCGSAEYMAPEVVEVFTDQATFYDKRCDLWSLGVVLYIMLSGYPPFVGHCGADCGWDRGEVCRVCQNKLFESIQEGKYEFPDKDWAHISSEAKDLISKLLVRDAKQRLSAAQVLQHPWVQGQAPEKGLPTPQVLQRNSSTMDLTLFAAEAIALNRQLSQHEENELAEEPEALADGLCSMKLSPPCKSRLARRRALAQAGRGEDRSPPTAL
MARK3, sequence (P27448 whole entry): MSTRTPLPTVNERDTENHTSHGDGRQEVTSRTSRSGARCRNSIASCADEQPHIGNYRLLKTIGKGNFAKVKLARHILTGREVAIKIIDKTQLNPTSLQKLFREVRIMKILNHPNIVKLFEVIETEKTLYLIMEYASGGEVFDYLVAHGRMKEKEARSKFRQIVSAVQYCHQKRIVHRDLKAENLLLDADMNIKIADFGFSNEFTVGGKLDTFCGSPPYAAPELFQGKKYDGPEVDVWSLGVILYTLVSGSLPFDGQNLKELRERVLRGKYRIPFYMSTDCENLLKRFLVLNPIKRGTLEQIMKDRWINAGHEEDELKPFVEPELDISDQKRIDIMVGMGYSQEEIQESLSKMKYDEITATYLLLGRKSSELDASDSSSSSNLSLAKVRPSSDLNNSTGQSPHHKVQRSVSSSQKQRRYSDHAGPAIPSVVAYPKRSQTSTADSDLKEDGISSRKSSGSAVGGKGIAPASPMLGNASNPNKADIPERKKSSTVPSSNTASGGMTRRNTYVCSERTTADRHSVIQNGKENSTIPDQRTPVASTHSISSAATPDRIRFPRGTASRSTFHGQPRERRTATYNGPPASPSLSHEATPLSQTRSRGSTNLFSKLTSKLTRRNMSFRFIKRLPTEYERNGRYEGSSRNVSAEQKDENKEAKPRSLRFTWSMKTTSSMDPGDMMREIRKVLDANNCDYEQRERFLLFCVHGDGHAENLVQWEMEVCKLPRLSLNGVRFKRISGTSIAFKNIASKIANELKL

Take `COc1ccc(-c2cnccc2-c2cnc(NC(=O)C(C)C)s2)c(C(F)(F)F)c1` [CRT0105446, N-{5-[3-(4-Methoxy-2-trifluoromethyl-phenyl)-pyridin-4-yl]-hiazol-2-yl}-isobutyramide]: the remaining binding at 10 µM was 94% in experiment [1]; 100% in experiment [2]; 97% in [3]; 80% in experiment [4]; 100% in experiment [5]; 100% in experiment [6]. For the same compound, the remaining binding at 10 µM turned out to be 11% in experiment [7]; 34% in experiment [8]; 80% in experiment [9]; 87% in experiment [10]; 78% in [11]; 95% in experiment [12]. The remaining binding at 10 µM in experiment [13] turned out to be 37%; in [14], 100%; in [15] it was 100%; in [16] it was 95%; in experiment [17], 1.1%; in experiment [18] it was 49%. Further, the remaining binding at 10 µM in [19] turned out to be 86%; in experiment [20], 100%; in [21], 93%; in experiment [22], 82%; in [23], 100%.
Consider `Cc1ccc(-c2cnccc2-c2cnc(Nc3ccc(O)cc3)s2)c(Cl)c1` [CRT0105950, 4-{5-[3-(2-Chloro-4-methyl-phenyl)-pyridin-4-yl]-thiazol-2-ylamino}-phenol], for which the remaining binding at 10 µM worked out at 66% in experiment [1]; 100% in [2]; 44% in experiment [3]; 18% in experiment [4]; 22% in [5]; 100% in experiment [6]. In addition, the remaining binding at 10 µM was 63% in [7]; 0.5% in experiment [8]; 76% in experiment [9]; 93% in experiment [10]; 51% in experiment [11]; 93% in experiment [12]. Moreover, the remaining binding at 10 µM in experiment [13] turned out to be 44%; in experiment [14] it was 100%; in [15], 53%; in experiment [16] it was 100%; in [17] it was 2.1%; in experiment [18] it was 46%. Also, the remaining binding at 10 µM came to 99% in experiment [19]; 100% in [20]; 62% in experiment [21]; 1.8% in experiment [22]; 100% in experiment [23].

Values taken from publication PMC4770715, “LIM kinase inhibitors disrupt mitotic microtubule organization and impair tumor cell proliferation” (Oncotarget, 2015).
